Our source for the LC retention time values is the RepoRT retention time repository (doi:10.1016/j.foodchem.2015.11.070).

The nature of the series: Thermo Scientific Hypersil GOLD aQ, 100 × 2.1 mm, 1.9 µm, 30 °C, 0.3 mL/min, estimated dead time 0.73 min; A: water + 0.01% formic acid + 4 mM ammonium formate; B: methanol + 0.01% formic acid + 4 mM ammonium formate; gradient (min/%B) 0/5 1/5 8/100 12/100. Conditions: stereoisomer not certain.
Turning to `COC(=O)c1sccc1S(=O)(=O)NC(=O)Nc1nc(C)nc(OC)n1`, the LC retention time is 8.32 min.

On to `CNC(=O)Oc1cc(C)c(S(C)(=O)=O)c(C)c1`, for which the LC retention time is 6.96 min. As for `CC(COc1ccc(Oc2ccccc2)cc1)Oc1ccccn1` (stereo unspecified), the figure is 10.9 min. Take `Cc1nn(C)c(Oc2ccccc2)c1C=NOCc1ccc(C(=O)OC(C)(C)C)cc1`: the LC retention time is 11.2 min.

Consider `COC(=O)Nc1cccc(OC(=O)Nc2cccc(C)c2)c1`, for which the LC retention time is 9.23 min.

In the case of `COC(=O)C(C)N(C(=O)Cc1ccccc1)c1c(C)cccc1C` (stereo unspecified), the LC retention time was 10.2 min.

Take `CCCN(CCC)C(=O)SCc1ccccc1`: the LC retention time is 10.6 min. As for `CCSCCSP(=S)(OC)OC`, the figure is 8.94 min; as for `CC(=O)OCC12CC(OC(=O)CC(C)C)C(C)=CC1OC1C(O)C(OC(C)=O)C2(C)C12CO2` (stereo unspecified), 9.3 min. As for `CCCSP(=S)(OCC)Oc1ccc(SC)cc1` (stereo unspecified), the figure is 11 min; as for `CCCCC(C)C(OC(=O)CC(CC(=O)O)C(=O)O)C(CC(C)CCCCCCC(O)CC(O)C(C)N)OC(=O)CC(CC(=O)O)C(=O)O` (stereo unspecified), 7.46 min; as for `CCOP(=S)(OCC)Oc1cc(C)nc(N(CC)CC)n1`, 10.7 min. The figure for `CC1=NNC(=O)N(N=Cc2cccnc2)C1` is 1.58 min; for `Cc1ccc(OP(=O)(Oc2ccc(C)cc2)Oc2ccc(C)cc2)cc1` it is 11.9 min; for `CCOP(=S)(OCC)SCCS(=O)CC` (stereo unspecified) it is 8.89 min. Take `CC1CCCC(=O)CCCC=Cc2cc(O)cc(O)c2C(=O)O1` (stereo unspecified): the LC retention time is 9.87 min. As to `CCOP(=S)(OCC)SCSP(=S)(OCC)OCC`, the LC retention time was 10.8 min. The figure for `CCOP(=S)(OCC)Oc1ccc(=O)n(-c2ccccc2)n1` is 9.71 min; for `CC(C)c1ccc(NC(=O)N(C)C)cc1` it is 9.15 min. Take `CCOP(=S)(OCC)SCCSCC`: the LC retention time was 10.4 min.

In the case of `CNC(=O)ON=C(CS(C)(=O)=O)C(C)(C)C`, the LC retention time is 6.92 min.

Take `CNC(=O)Oc1cccc(N=CN(C)C)c1`: the LC retention time is 7.91 min. The figure for `Cc1nc(N(C)C)nc(OC(=O)N(C)C)c1C` is 7.91 min; for `CSc1nnc(C(C)(C)C)c(=O)n1N` it is 8.41 min; for `CNC(=O)Oc1ccccc1OC(C)C` it is 8.36 min. The figure for `COCC(=O)N(c1c(C)cccc1C)C(C)C(=O)OC` (stereo unspecified) is 9.04 min; for `CCS(=O)(=O)CCSP(=O)(OC)OC` it is 6.13 min; for `CCN(CC)c1nc(C)cc(OP(=S)(OC)OC)n1` it is 10.3 min. The figure for `CCCC(=NOCC)C1=C(O)CC(C2CCCSC2)CC1=O` (stereo unspecified) is 10.5 min; for `COC(=O)c1ccccc1S(=O)(=O)NC(=O)Nc1nc(C)nc(OC)n1` it is 8.43 min. Take `COC(=O)C(C)N(C(=O)c1ccco1)c1c(C)cccc1C` (stereo unspecified): the LC retention time is 9.38 min. As for `CCC1CCCC(OC2CCC(N(C)C)C(C)O2)C(C)C(=O)C2=CC3C(C=CC4CC(OC5OC(C)C(OC)C(OC)C5OC)CC43)C2CC(=O)O1` (stereo unspecified), the figure is 10.3 min. As for `CCOP(=S)(NC(C)C)Oc1ccccc1C(=O)OC(C)C` (stereo unspecified), the figure is 7.91 min.

As for `CSC(C)=NOC(=O)N(C)SN(C)C(=O)ON=C(C)SC`, the LC retention time is 8.88 min.

Turning to `COP(=O)(OC)Oc1ccc([N+](=O)[O-])cc1`, the LC retention time is 8.12 min. The figure for `CC=C(C)C(=O)OC1CC(OC(C)=O)C2(C(=O)OC)COC3C2C12COC(O)(C(=O)OC)C2C(C)(C12OC1(C)C1CC2OC2OC=CC21O)C3O` (stereo unspecified) is 8.67 min; for `CNC(=O)C(C)SCCSP(=O)(OC)OC` (stereo unspecified) it is 7.11 min.

Turning to `CCOP(=S)(OCC)Oc1ccc(S(C)=O)cc1` (stereo unspecified), the LC retention time is 9.1 min. `COP(=S)(OC)SCN1C(=O)c2ccccc2C1=O`: the LC retention time is 9.39 min.

For the compound `Cc1cc(C)c(C2=C(OC(=O)CC(C)(C)C)C3(CCCC3)OC2=O)c(C)c1`, the LC retention time is 10.9 min. As for `CCS(=O)Cc1ccccc1OC(=O)NC` (stereo unspecified), the figure is 7.09 min; as for `CCOP(=O)(NC(C)C)Oc1ccc(S(C)(=O)=O)c(C)c1` (stereo unspecified), 8.51 min; as for `CCOC1Oc2ccc(OS(C)(=O)=O)cc2C1(C)C` (stereo unspecified), 9.42 min. The figure for `CCSC(=O)N(CC)C1CCCCC1` is 10.6 min. The figure for `COP(=S)(OC)SCC(=O)N(C)C=O` is 8.06 min. As to `CCOC(=O)CC(SP(=S)(OC)OC)C(=O)OCC` (stereo unspecified), the LC retention time was 9.59 min. In the case of `CNC(=O)Oc1cccc2c1OC(C)(C)O2`, the LC retention time is 8.4 min. With `CSc1nc(NC(C)C)nc(NC(C)C)n1`, the LC retention time was 9.65 min.

Take `COC(=O)c1ccccc1CS(=O)(=O)NC(=O)Nc1nc(OC)cc(OC)n1`: the LC retention time was 9.3 min. The figure for `CCOP(=S)(Oc1ccc([N+](=O)[O-])cc1)c1ccccc1` (stereo unspecified) is 9.71 min; for `COc1cc2c(c3oc(=O)c4c(c13)CCOC4=O)C1CCOC1O2` (stereo unspecified) it is 7.8 min. The figure for `CCOP(=O)(NC(C)C)Oc1ccc(S(C)=O)c(C)c1` (stereo unspecified) is 8.44 min. As for `CC(C)N1C(=O)N(c2ccccc2)CSC1=NC(C)(C)C`, the figure is 10.7 min.

For the compound `CCNc1nc(NCC)nc(SC)n1`, the LC retention time is 8.62 min.

Turning to `Cc1ccc(N=CN(C)C=Nc2ccc(C)cc2C)c(C)c1`, the LC retention time was 9.09 min. For the compound `CCOP(=O)(SC(C)CC)N1CCSC1=O` (stereo unspecified), the LC retention time is 8.81 min. `C=CCC1=C(C)C(OC(=O)C2C(C=C(C)C)C2(C)C)CC1=O` (stereo unspecified): the LC retention time was 10.8 min. The figure for `COc1cc(OC)nc(NC(=O)NS(=O)(=O)c2ncccc2C(=O)N(C)C)n1` is 8.01 min.

With `c1ccc(Nc2ccccc2)cc1`, the LC retention time is 6.3 min. As to `CNC(=O)ON=CC(C)(C)S(C)(=O)=O`, the LC retention time is 7.37 min. As for `COC(=O)NC(=S)Nc1ccccc1NC(=S)NC(=O)OC`, the figure is 8.31 min; as for `CNC(=O)ON=C(C)C(C)S(C)(=O)=O` (stereo unspecified), 7.37 min. The figure for `COCC(=O)N(c1c(C)cccc1C)N1CCOC1=O` is 8.04 min; for `CON=C(C(=O)OC)c1ccccc1COc1ccccc1C` it is 10.1 min; for `CCSCc1ccccc1OC(=O)NC` it is 8.76 min.

On to `CCOC(=O)c1cn2nc(OP(=S)(OCC)OCC)cc2nc1C`, for which the LC retention time is 10.4 min. The figure for `CC1(c2ccc(Oc3ccccc3)cc2)OC(=O)N(Nc2ccccc2)C1=O` (stereo unspecified) is 10.2 min; for `CCOC(=O)C(SP(=S)(OC)OC)c1ccccc1` (stereo unspecified) it is 10.1 min. The figure for `CNC(=O)ON=C(CS(C)=O)C(C)(C)C` (stereo unspecified) is 6.31 min; for `CCCCOCCOCCOCc1cc2c(cc1CCC)OCO2` it is 10.8 min. As for `CCCC(=NOCC)C1=C(O)CC(CC(C)SCC)CC1=O` (stereo unspecified), the figure is 10.7 min.

Regarding `CCCN(CC)CC1COC2(CCC(C(C)(C)C)CC2)O1` (stereo unspecified), the LC retention time is 9.58 min. As for `CCOc1ccc(C(C)(C)COCc2cccc(Oc3ccccc3)c2)cc1`, the figure is 11.7 min; as for `Cc1cc(C)nc(Nc2ccccc2)n1`, 9.6 min; as for `COP(=S)(OC)SCn1nnc2ccccc2c1=O`, 9.38 min. The figure for `CCOP(=S)(OCC)Oc1cnc2ccccc2n1` is 10.2 min. As for `Cc1ccc(C(C)NC(=O)C(NC(=O)OC(C)C)C(C)C)cc1` (stereo unspecified), the figure is 9.73 min; as for `C=CC=CCC1=C(C)C(OC(=O)C2C(C=C(C)C(=O)OC)C2(C)C)CC1=O` (stereo unspecified), 10.3 min.

Turning to `CNC(=O)Oc1cc(C)cc(C(C)C)c1`, the LC retention time was 9.52 min. For the compound `CCOP(=O)(SC(C)CC)SC(C)CC` (stereo unspecified), the LC retention time is 10.5 min.

On to `CNC(=O)C=C(C)OP(=O)(OC)OC`, for which the LC retention time was 6.58 min. The figure for `CCCN(CCC)C(=O)SCC` is 10.1 min; for `COc1cc2c(c3oc(=O)c4c(c13)CCOC4=O)C1C=COC1O2` (stereo unspecified) it is 8 min; for `CC1(C)C(C(=O)OC(C#N)c2cccc(Oc3ccccc3)c2)C1(C)C` (stereo unspecified) it is 11 min.

Take `C=CC=CCC1=C(C)C(OC(=O)C2C(C=C(C)C)C2(C)C)CC1=O` (stereo unspecified): the LC retention time is 11 min. As for `COP(=S)(NC(C)C)Oc1ccccc1C(=O)OC(C)C` (stereo unspecified), the figure is 8.98 min. As for `CCOP(=S)(OCC)OP(=S)(OCC)OCC`, the figure is 10.1 min. The figure for `CCCCOC(=O)N(C)SN(C)C(=O)Oc1cccc2c1OC(C)(C)C2` is 10.6 min; for `CCOC(=O)N(C)C(=O)CSP(=S)(OCC)OCC` it is 9.84 min. For `COc1nn(CSP(=S)(OC)OC)c(=O)s1`, the LC retention time is 9.26 min. The figure for `CC(Cc1ccc(C(C)(C)C)cc1)CN1CC(C)OC(C)C1` (stereo unspecified) is 9.38 min; for `CCC(C)Nc1c([N+](=O)[O-])cc(C(C)(C)C)cc1[N+](=O)[O-]` (stereo unspecified) it is 9.23 min; for `CC#Cc1cc(C)nc(Nc2ccccc2)n1` it is 10 min.

Turning to `CCOP(=S)(OCC)SCCS(=O)(=O)CC`, the LC retention time is 8.89 min. The figure for `CCNC(=O)NC(=O)C(C#N)=NOC` is 8.63 min.

On to `COC(=O)Nc1nc2ccccc2[nH]1`, for which the LC retention time was 6.3 min.

With `CC1=CC2OC3C(O)CC(C)(C34CO4)C2(CO)C(O)C1=O` (stereo unspecified), the LC retention time was 9.63 min. As for `COP(N)(=O)SC` (stereo unspecified), the figure is 1.58 min; as for `CCSCCSP(=O)(OC)OC`, 8.74 min. For `CCS(=O)(=O)Cc1ccccc1OC(=O)NC`, the LC retention time was 7 min. As to `CON(C(=O)c1cc(C)oc1C)C1CCCCC1`, the LC retention time was 10.2 min.
